Measurements published in publication PMC6736633 (Bioorganic & medicinal chemistry letters, 2019).

System: Mycobacterium tuberculosis (Mtb) H37Rv
Assay: Mtb luminescence assay
Type: cell-based
Conditions: for reduction in Mtb signal (in words) / relative Mtb signal: 20 μM

SMILES | reduction in Mtb signal (in words) | relative Mtb signal | also measured
COc1ccc2nccc(Nc3ccc(NC(=O)c4ccc(C)cc4)c(O)c3)c2c1 [Compound 32] | no reduction |  | 
COc1cc2nccc(Nc3ccc(NC(C)=O)cc3)c2cc1OC [Compound 31] |  |  | effect on Mtb (in words) (across tested concentrations up to 20 μM): no effect
COc1cc2nccc(Nc3ccc(OCc4cccc(F)c4)c(Cl)c3)c2cc1OC [Compound 28] |  | 10% | 
C#Cc1cccc(Nc2ncnc3cc(OCCOC)c(OCCOC)cc23)c1 [Erlotinib] |  |  | Mtb signal at plateau (plateau of effect): approximately 70%
COc1ccc2c(Nc3ccc(NC(=O)c4ccc(C)cc4)c(O)c3)ccnc2c1 [Compound 33] | no reduction |  | 
CS(=O)(=O)CCNCc1ccc(-c2ccc3ncnc(Nc4ccc(OCc5cccc(F)c5)c(Cl)c4)c3c2)o1 [Lapatinib] |  | below 10% | 
